These results are taken from patent US20240050440A1, “THERAPEUTIC TARGETS AND AGENTS FOR THE TREATMENT OF TRIOSEPHOSPHATE ISOMERASE (TPI) DEFICIENCY” (University of Pittsburgh- Of The Commonwealth System of …, priority 2020, published 2024).

In this test the test system is TPI^E105D-GFP fusion protein. The experiment in a line: HEK293 TPI^E105D-GFP high content assay (GFP intensity per cell). Conditions: prescreen of putative protein stabilizing compounds, 48 hours. Format: cell-based, human. The method, then: HEK293 cells expressing a mutant (E105D) TPI-GFP fusion protein were created using the Flp-In System (Invitrogen, Catalog #K6010-01 and K6010-02) following the manufacturer's protocol. Briefly, a host cell line expressing the transfected Flp-In target site vector, pFRT/lacZeo, was obtained following zeocin resistance selection. TPI^E105D-GFP fusion construct was cloned into the pcDNA 5/FRT expression vector. Co-transfection of 0.1 μg of the pcDNA 5/FRT construct (390 ng/μL) and 0.9 μg of the Flp recombinase expression vector (pOG44, 127 ng/μL) into the Flp-In host cell line was performed with 3.75 μL Lipofectamine 2000 reagent (Invitrogen). A hygromycin dose response was performed to determine the minimum concentration of hygromycin B required to kill untransfected host cells. […] Expression of the TPI^E105D-GFP fusion protein was verified via Western blot. The cells were cultured using standard methods (37° C., 5% CO2) in normal media (DMEM with 10% serum, 100 U penicillin/100 μg streptomycin/ml (Lonza)). To document subcellular localization of mutant GFP-tagged TPI, nuclei were stained with Hoechst 33342 and imaged on an ImageXpress Ultra confocal high content reader in the UV and GFP channel, respectively. A z-series of images (60× objective, 90 planes, 0.3 μm z-steps) was acquired in both channels, and the color combined stack subjected to 3D reconstruction in MetaXpress. A single slice of the reconstructed image was chosen to illustrate the phenotype of mutant TPI-GFP expression.
HEK293 TPI^E105D-GFP cells were plated (50,000 cells/well in collagen-coated 96-well thin-bottom microplates and allowed to attach overhight. Cells were treated with four point, two-fold gradients of 5× treatment solutions of test agents (6 replicates per condition). The final concentration of vehicle was 0.2%. After 48 hours in culture, cells were preincubated with propidium iodide (PI) for 30 minutes and imaged live in the GFP and Texas Red channels on an ImageXpress Ultra high content reader (Molecular Devices) using a 20× objective Images were analyzed with the multiwavelength cell scoring application using GFP to define and enumerate cells. The integrated GFP intensity per cell was used to quantify mutant TPI expression; the number of cells was used as a proxy for growth inhibition and/or cell loss; and the percentage of cells that exceeded a threshold for PI based on vehicle-treated controls was used to measure acute toxicity (necrosis).
Assay ready daughter plates of the NIH Clinical Collection containing 2 μL of a 1 mM DMSO stock were reconstituted in DMEM (60 μL) to yield a 30 μM intermediate treatment concentration. 60 μl of DMSO (3%) was added to columns 1 and 24, and 60 μL of 600 nM luminespib was added to columns 2 and 23 to serve as negative and positive controls, respectively. Aliquots (15 μl) were transferred directly to cells in 384 well plates using an Agilent Bravo liquid handling robot (final concentration in assay, 10 μM). For the 1 μM condition, an aliquot of the 30 μM treatment solution was diluted 1:10 and controls added as above. Aliquots (15 μl) were transferred to cells to yield a […] final concentration. Plates were centrifuged for 30 seconds at 200×g and incubated at 37° C. After 24 hours, plates were imaged live in the GFP channel and returned to the incubator; after 48 hours cells were stained with PI, imaged live in the GFP and PI channels, and analyzed as described above. The LOPAC library was screened using the same procedure except that only the 10 μM, 48 hour condition was used.
A pilot library screen was performed using the NIH Clinical Collection in the HEK TPI^E105D-GFP cell line. The NIH Clinical Collection maintained at the UPDDI contains 446 FDA approved drugs and small molecules that have a history of use in human clinical trials. The collections were assembled through the Molecular Libraries and Imaging Initiative as part of its mission to enable the use of compound screens in biomedical research. […]

“Also recorded” adds a separate entry of the source.

Consider `CCNC(=O)c1noc(-c2cc(C(C)C)c(O)cc2O)c1-c1ccc(CN2CCOCC2)cc1` [luminespib], for which the “TPI^E105D-GFP fluorescence (in words)” value is “significant increase; also recorded: highest fold increase in GFP; also recorded: strong inducer”. Moreover, for the setting “listed as Luminespib”, the “TPI^E105D-GFP fluorescence (in words)” value was “dose-dependent increases”.
